Experimental data: US20050233377A1, “Drug screening method for the treatment of brain damage” (priority 2004, published 2005)

Experiments:
[1] = format: physicochemical
Source text: Both compounds were therefore dissolved in DMSO for the NMR titration experiments.

[2] = target: T1, PDZ2 of PSD-95 (Rattus norvegicus, UniProt P31016); assay: NMR chemical shift perturbation assay (1H-15N HSQC) of binding to 15N-labeled PDZ2; settings: for structural perturbation of PDZ2 (chemical shift of amide groups of Ser 173 and Ala 231 normalized to maximal shift with crude extract = 100%): 10-fold excess of compound relative to PDZ2
T1 construct: His tag (N); made in house; host or cells: Escherichia coli BL21 (DE3), pET14b
Protocol: In this specific non-limiting example, the PDZ-domain of recombinant PSD-95 was uniformly labeled with ^15N using the recombinant protein production method described. The ^15N-labeled PSD-95 was expressed in and purified from E. coli bacterial cells. The NMR spectra was acquired at 30° C. on Varian Inova 500 or 750 spectrometers each equipped with a 5 mm z-shielded gradient triple resonance probes. Lyophilized ^15N-labeled PDZ2 protein dissolved in 100 mM potassium phosphate buffer at pH 6.0, with a pure recombinant protein concentration of ˜0.1-0.2 mM (typically 0.5 ml in 100 mM phosphate buffer) for spectral analysis.
Since the identity of every resonances of the ^1H-^15N HSQC spectrum of PSD-95 PDZ domains is known, and the three dimensional structures of the PSD-95 PDZ domains could be elucidated, the quantitative values of compound-induced chemical shift changes for each amino acid residues of PSD-95 PDZ2 were computed using the equation: Δppm=[(ΔδHN)^2+(ΔδN·αN)^2]^1/2
The scaling factor αN used to normalize ^1H and ^15N chemical shifts was 0.17. ΔδHN corresponded to the change of the ^15N-bonded hydrogen chemical shift of a specific resonance, while ΔδN corresponded to the change of the ^15N chemical shift of that resonance.
In this method, the PDZ domain of PSD-95 is expressed recombinantly as described in Example 1 and uniformly labeled with ^15N using a recombinant protein production method. […]
Using preparation techniques mentioned above, a ^1H,^15N HSQC spectrum was recorded for each mixture of bound PDZ2 protein, and compared with the ^1H,^15N HSQC spectrum of free PSD-95 PDZ2 (˜0.1 mM in the same buffer). […]
The observation of chemical shift changes (with respect to the free PDZ2) as a result of mixing the protein with the herbal mixtures or pure compounds was scored as positive binding of compound(s) to PDS-95 PDZ2. […]
The binding affinity of the compounds to PDZ2 of PSD-95 was quantified by normalizing the chemical shift of the amide groups of Ser 173 and Ala 231 in relation to the maximal shift of these groups upon incubation with the crude extract (100%). […]

T1 sequence (P31016 156-249): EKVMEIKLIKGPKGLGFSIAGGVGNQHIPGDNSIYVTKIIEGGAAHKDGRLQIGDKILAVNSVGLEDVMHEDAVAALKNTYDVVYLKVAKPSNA

O=C(O)[C@H]1O[C@@H](Oc2cc3oc(-c4ccccc4)cc(=O)c3c(O)c2O)[C@H](O)[C@@H](O)[C@@H]1O [baicalin]
solubility in H2O [1]: very poor solubility
structural perturbation of PDZ2 (chemical shift of amide groups of Ser 173 and Ala 231 normalized to maximal shift with crude extract = 100%) [2]: around 60%
chemical shift changes of PSD-95 PDZ2 HSQC spectrum relative to free PDZ2 (scored as positive binding) ([2]; 15N-labeled PDZ2 0.1-0.2 mM, 100 mM phosphate buffer pH 6.0): significant chemical shift changes

O=C(O)[C@H]1O[C@@H](Oc2cc(O)c3c(=O)cc(-c4ccccc4)oc3c2O)[C@H](O)[C@@H](O)[C@@H]1O [norwogonoside]
structural perturbation of PDZ2 (chemical shift of amide groups of Ser 173 and Ala 231 normalized to maximal shift with crude extract = 100%) [2]: around 60%

COc1c(O[C@@H]2O[C@H](C(=O)O)[C@@H](O)[C@H](O)[C@H]2O)cc(O)c2c(=O)cc(-c3ccccc3)oc12 [wogonoside]
solubility in H2O [1]: very poor solubility
